# According to patent publication US20180327367A1, “MACROCYCLIC BROAD SPECTRUM ANTIBIOTICS” (priority 2015, published 2018):
# Where two headings read alike, the source gives them in different places.
# Legend:
# [1] = tested on: Methicillin Resistant Staphylococcus aureus strain USA 300, NRS384; experiment: Minimum inhibitory concentration, broth micro-dilution (CLSI), S. aureus; format: cell-based; conditions: Staphylococcus aureus, MRSA / NRS 384 / USA300, 22 h, 35° C., 22 hours
# How it was run: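 Colonies grown 20 hours at 35° C were suspended in cation-adjusted Mueller Hinton Broth with 0.002% Tween-80. Cells were then added to 2-fold compound dilutions starting at 4 or 0.5 μg/mL, at OD600 0.0005.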
# [2] = molecular target: T1, SpsB (Staphylococcus aureus signal peptidase) (Staphylococcus aureus, UniProt P0A070); experiment: cell-based; format: biochemical; conditions: SpsB IC50, whole-cell S. aureus (USA300 background, overexpressing SpsB) as SpsB source; fluorogenic peptide substrate, kinetic read 30 min
# T1 construct: This assay uses a suspension of Staphylococcus aureus cells as a source of SpsB instead of recombinant SpsB protein; endogenous in cells; host or cells: S. aureus, USA300 background, overexpressing SpsB (whole-cell suspension from frozen pellets)
# T1 sequence (P0A070 whole entry): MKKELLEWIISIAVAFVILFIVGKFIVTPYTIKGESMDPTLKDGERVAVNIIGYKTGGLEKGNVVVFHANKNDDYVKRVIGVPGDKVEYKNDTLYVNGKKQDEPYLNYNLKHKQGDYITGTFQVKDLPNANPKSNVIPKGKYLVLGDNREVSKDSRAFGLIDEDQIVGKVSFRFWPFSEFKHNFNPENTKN
# How it was run: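 Whole S. aureus cells (USA300, overexpressing SpsB) in PBS with MgCl2, CaCl2 and 0.1% Tween-80 served as enzyme source, mixed with 20 μM stock of (Dabcyl)βAla-KPAKAAE(Edans) substrate before use. Fluorescence (ex 340/em 490 nm) read kinetically over 30 min. IC50 from reaction rate versus 11-point inhibitor concentration.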
# [3] = tested on: Escherichia coli MC4100 harboring the IMP4213 (E. coli IMP); experiment: microbe, parasite or virus in culture; format: cell-based; conditions: Escherichia coli, 22 h, read-out: MIC (μg/mL) E. coli IMP, E. coli MC4100 IMP4213, increased outer-membrane permeability; 35° C., 22 hours
# How it was run: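 Broth micro-dilution per CLSI in cation-adjusted Mueller Hinton Broth with 0.002% Tween-80; E. coli MC4100 carries IMP4213, raising outer-membrane permeability. Compounds tested as 2-fold serial dilutions (10 concentrations) from 4 μg/mL (protocol 2) or 0.5 μg/mL (protocol 3); inoculum OD600 0.0005, 35° C for 22 hours.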
# [4] = tested on: Escherichia coli ATCC 25922; experiment: Minimum inhibitory concentration, broth micro-dilution (CLSI), E. coli; format: cell-based; conditions: Escherichia coli, ATCC25922, 22 h, 35° C., 22 hours
# [5] = MRSA USA 300 NRS384, read-out: MIC (μg/mL) S. aureus
# [6] = E. coli ATCC 25922, read-out: MIC (μg/mL) E. coli
# [7] = read-out: MIC (μg/mL) S. aureus, MRSA USA 300 NRS384
# [8] = read-out: MIC (μg/mL) E. coli, E. coli ATCC 25922
Structure (SMILES),"MIC [1, 5] [µg/mL]",IC50 [2] [nM],MIC [3] [µg/mL],"MIC [4, 6] [µg/mL]","MIC [1, 7] [µg/mL]","MIC [4, 8] [µg/mL]"
CCCCCc1ccc(C(=O)N[C@@H](CCN)C(=O)N(C)[C@@H]2C(=O)N[C@@H](C)C(=O)N[C@H](C(=O)NCC#N)Cc3ccc(OCCN)c(c3)-c3cc2ccc3OCCN)c(C2CC2)c1 [Compound 229],0.047,0.92,0.016,1.5,–,–
CCCCc1cc(C)c(C(=O)N[C@@H](CCCN)C(=O)N(C)[C@@H]2C(=O)N[C@@H](C)C(=O)N[C@H](C(=O)NCC#N)Cc3ccc(OCCN)c(c3)-c3cc2ccc3OCCN)c(C)c1 [Compound 230],0.38,1.3,0.031,4,–,–
CCCCCCCCCCCC(=O)N[C@@H](CO)C(=O)N(C)[C@@H]1C(=O)N[C@@H](C)C(=O)N[C@H](C(=O)NCC#N)Cc2ccc(OCCN)c(c2)-c2cc1ccc2OCCN [Compound 231],0.13,0.57,0.063,8,–,–
CCCCCCCCCC(=O)N[C@@H](CO)C(=O)N(C)[C@@H]1C(=O)N[C@@H](C)C(=O)N[C@H](C(=O)NCC#N)Cc2ccc(OCCN)c(c2)-c2cc1ccc2OCCN [Compound 232],1.5,2.4,0.25,> 64,–,–
C[C@@H]1NC(=O)[C@@H](N(C)C(=O)[C@H](CO)NC(=O)c2ccc(-c3ccc(Cl)cc3)cc2)c2ccc(OCCN)c(c2)-c2cc(ccc2OCCN)C[C@@H](C(=O)NCC#N)NC1=O [Compound 233],–,4,0.13,–,0.5,32
C[C@@H]1NC(=O)[C@@H](N(C)C(=O)[C@H](CO)NC(=O)c2cnc(-c3ccc(Cl)cc3)nc2)c2ccc(OCCN)c(c2)-c2cc(ccc2OCCN)C[C@@H](C(=O)NCC#N)NC1=O [Compound 234],–,3.9,0.25,–,1,32
CCCCCCCCc1ccc(C(=O)N[C@@H](CO)C(=O)N(C)[C@@H]2C(=O)N[C@@H](C)C(=O)N[C@H](C(=O)NCC#N)Cc3ccc(OCCN)c(c3)-c3cc2ccc3OCCN)c(C)c1 [Compound 235],0.094,0.98,0.012,1,–,–
CCCCCCCCCC(=O)N[C@@H](CC(N)=O)C(=O)N(C)[C@@H]1C(=O)N[C@@H](C)C(=O)N[C@H](C(=O)NCC#N)Cc2ccc(OCCN)c(c2)-c2cc1ccc2OCCN [Compound 236],1,1.5,1.5,> 64,–,–
CCCCCCc1ccc(C(=O)N[C@@H](CC(N)=O)C(=O)N(C)[C@@H]2C(=O)N[C@@H](C)C(=O)N[C@H](C(=O)NCC#N)Cc3ccc(OCCN)c(c3)-c3cc2ccc3OCCN)c(C)c1 [Compound 237],0.13,1.1,0.094,16,–,–
CCCCCCCCc1ccc(C(=O)N[C@@H](CC(N)=O)C(=O)N(C)[C@@H]2C(=O)N[C@@H](C)C(=O)N[C@H](C(=O)NCC#N)Cc3ccc(OCCN)c(c3)-c3cc2ccc3OCCN)c(C)c1 [Compound 239],0.047,0.74,0.094,3,–,–
CCCCCCCCCCCC(=O)N[C@@H](C)C(=O)N(C)[C@@H]1C(=O)N[C@@H](C)C(=O)N[C@H](C(=O)NCC#N)Cc2ccc(OCCN)c(c2)-c2cc1ccc2OCCN [Compound 241],0.13,1.4,0.063,6,–,–
CCCCCCCCc1ccc(C(=O)N[C@@H](C)C(=O)N(C)[C@@H]2C(=O)N[C@@H](C)C(=O)N[C@H](C(=O)NCC#N)Cc3ccc(OCCN)c(c3)-c3cc2ccc3OCCN)c(C)c1 [Compound 243],0.094,1.3,0.031,1.5,–,–
CCCCCCCCCCCC(=O)N[C@@H](CCC(N)=O)C(=O)N(C)[C@@H]1C(=O)N[C@@H](C)C(=O)N[C@H](C(=O)NCC#N)Cc2ccc(OCCN)c(c2)-c2cc1ccc2OCCN [Compound 244],0.13,1,0.19,48,–,–
CCCCc1ccc(C(=O)N[C@@H](CCC(N)=O)C(=O)N(C)[C@@H]2C(=O)N[C@@H](C)C(=O)N[C@H](C(=O)NCC#N)Cc3ccc(OCCN)c(c3)-c3cc2ccc3OCCN)c(C)c1 [Compound 245],1,6.3,0.38,> 64,–,–
CCCCCCc1ccc(C(=O)N[C@@H](CCC(N)=O)C(=O)N(C)[C@@H]2C(=O)N[C@@H](C)C(=O)N[C@H](C(=O)NCC#N)Cc3ccc(OCCN)c(c3)-c3cc2ccc3OCCN)c(C)c1 [Compound 246],0.13,1.1,0.063,16,–,–
CCCCc1ccc(-c2ccc(C(=O)N[C@@H](CO)C(=O)N(C)[C@@H]3C(=O)N[C@@H](C)C(=O)N[C@H](C(=O)NCC#N)Cc4ccc(OCCN)c(c4)-c4cc3ccc4OCCN)cc2)cc1 [Compound 249],0.13,1.2,0.012,0.69,–,–
C[C@@H]1NC(=O)[C@@H](N(C)C(=O)[C@H](CO)NC(=O)c2ccc(-c3ccc(Cl)cc3)nc2)c2ccc(OCCN)c(c2)-c2cc(ccc2OCCN)C[C@@H](C(=O)NCC#N)NC1=O [Compound 250],–,7,0.25,–,1,64
CCCCCCCCCCCC(=O)N[C@@H](CCC(=O)O)C(=O)N(C)[C@@H]1C(=O)N[C@@H](C)C(=O)N[C@H](C(=O)NCC#N)Cc2ccc(OCCN)c(c2)-c2cc1ccc2OCCN [Compound 253],2,12,2,> 64,–,–
CCCCCCCCCC(=O)N[C@@H](CCSC)C(=O)N(C)[C@@H]1C(=O)N[C@@H](C)C(=O)N[C@H](C(=O)NCC#N)Cc2ccc(OCCN)c(c2)-c2cc1ccc2OCCN [Compound 254],0.5,1.6,0.5,48,–,–
CCCCCCCCCCCC(=O)N[C@H](C(=O)N(C)[C@@H]1C(=O)N[C@@H](C)C(=O)N[C@H](C(=O)NCC#N)Cc2ccc(OCCN)c(c2)-c2cc1ccc2OCCN)[C@@H](C)O [Compound 256],0.19,0.8,0.094,16,–,–
CCCCCCCCCCCC(=O)N[C@@H](CCO)C(=O)N(C)[C@@H]1C(=O)N[C@@H](C)C(=O)N[C@H](C(=O)NCC#N)Cc2ccc(OCCN)c(c2)-c2cc1ccc2OCCN [Compound 257],0.13,0.92,0.063,12,–,–
CCCCc1ccc(C(=O)N[C@@H](CCO)C(=O)N(C)[C@@H]2C(=O)N[C@@H](C)C(=O)N[C@H](C(=O)NCC#N)Cc3ccc(OCCN)c(c3)-c3cc2ccc3OCCN)c(C)c1 [Compound 258],1,2.8,0.19,64,–,–
CCCCCCCc1ccc(C(=O)N[C@@H](CCO)C(=O)N(C)[C@@H]2C(=O)N[C@@H](C)C(=O)N[C@H](C(=O)NCC#N)Cc3ccc(OCCN)c(c3)-c3cc2ccc3OCCN)c(C)c1 [Compound 260],0.094,1.1,0.031,2,–,–
Cc1cc(-c2ccc(CC(C)C)cc2)ccc1C(=O)N[C@@H](CCO)C(=O)N(C)[C@@H]1C(=O)N[C@@H](C)C(=O)N[C@H](C(=O)NCC#N)Cc2ccc(OCCN)c(c2)-c2cc1ccc2OCCN [Compound 261],0.13,4.6,0.047,0.5,–,–
CCCCCCCCc1ccc(C(=O)N[C@@H](CCO)C(=O)N(C)[C@@H]2C(=O)N[C@@H](C)C(=O)N[C@H](C(=O)NCC#N)Cc3ccc(OCCN)c(c3)-c3cc2ccc3OCCN)c(C)c1 [Compound 262],0.063,0.9,0.02,1,–,–
CCCCCCCCc1ccc(C(=O)N[C@@H](CCNCC(=O)O)C(=O)N(C)[C@@H]2C(=O)N[C@@H](C)C(=O)N[C@H](C(=O)NCC#N)Cc3ccc(OCCN)c(c3)-c3cc2ccc3OCCN)c(C)c1 [Compound 263],0.13,1.1,0.023,2,–,–
CCCCCCCCCCCC(=O)N[C@@H](CCCO)C(=O)N(C)[C@@H]1C(=O)N[C@@H](C)C(=O)N[C@H](C(=O)NCC#N)Cc2ccc(OCCN)c(c2)-c2cc1ccc2OCCN [Compound 264],0.13,2,0.094,16,–,–
CCC(C)(C)c1ccc(C(=O)N[C@@H](CCN)C(=O)N(C)[C@@H]2C(=O)N[C@@H](C)C(=O)N[C@H](C(=O)NCC#N)Cc3ccc(OCCN)c(c3)-c3cc2ccc3OCCN)c(C)c1 [Compound 265],–,0.89,0.043,–,0.13,2.5
